Test results taken from ChEMBL document CHEMBL1150440, “Tryptophan-norleucine 1,5-disubstituted tetrazoles as cis peptide bond mimics: Investigation of the bioactive conformation of a potent and selective peptide for the cholecystokinin-B receptor” (Bioorg Med Chem Lett, 1993).
Starred links: 1 amine or outer side, 2 acyl side, 3 side chain; linkers in the order of their positions; H or OH if unused. Non-standard residues stand in square brackets, D forms with d. Residues, ends and D or L forms follow the SMILES beside them. X1 = CCCC1C[C@@H](C(=O)[*:2])N([*:1])C1; NMeNle = CCCC[C@H](NC)C(=O)O; Nle = CCCC[C@H](N)C(=O)O

Tests used:
[1] = target: T1, Cholecystokinin receptor type A (Homo sapiens, UniProt P32238); assay: Compound was tested for its binding affinity towards Cholecystokinin type A receptor in pancreatic membranes; format: cell membranes
T1 sequence (P32238 whole entry): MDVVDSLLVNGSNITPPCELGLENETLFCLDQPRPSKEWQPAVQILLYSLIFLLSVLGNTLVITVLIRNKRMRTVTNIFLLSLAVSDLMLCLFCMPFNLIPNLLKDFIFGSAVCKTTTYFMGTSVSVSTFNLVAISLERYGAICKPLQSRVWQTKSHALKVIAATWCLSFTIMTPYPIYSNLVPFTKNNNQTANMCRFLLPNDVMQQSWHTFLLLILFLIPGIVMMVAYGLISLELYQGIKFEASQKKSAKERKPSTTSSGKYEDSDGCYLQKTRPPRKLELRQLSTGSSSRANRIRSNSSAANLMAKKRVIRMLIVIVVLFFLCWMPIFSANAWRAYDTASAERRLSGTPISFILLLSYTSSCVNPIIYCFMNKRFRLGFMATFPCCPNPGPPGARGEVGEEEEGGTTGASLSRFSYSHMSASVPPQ

[2] = target: T2, Gastrin/cholecystokinin type B receptor (Homo sapiens, UniProt P32239); assay: Compound was tested for its binding affinity towards Cholecystokinin type B receptor in cortical membranes (CNS); format: cell membranes
T2 sequence (P32239 whole entry): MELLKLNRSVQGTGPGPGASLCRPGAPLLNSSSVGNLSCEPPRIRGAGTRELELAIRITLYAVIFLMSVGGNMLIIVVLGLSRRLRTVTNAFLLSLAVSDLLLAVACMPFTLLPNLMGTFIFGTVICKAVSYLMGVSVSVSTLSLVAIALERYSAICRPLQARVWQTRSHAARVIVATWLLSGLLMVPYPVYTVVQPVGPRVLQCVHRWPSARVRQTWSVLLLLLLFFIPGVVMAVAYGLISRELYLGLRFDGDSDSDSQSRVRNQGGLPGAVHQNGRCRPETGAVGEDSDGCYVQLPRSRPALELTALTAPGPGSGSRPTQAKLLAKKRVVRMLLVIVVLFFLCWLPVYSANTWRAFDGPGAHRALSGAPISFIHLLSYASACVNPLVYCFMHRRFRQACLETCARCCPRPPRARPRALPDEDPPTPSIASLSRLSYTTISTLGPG

[3] = target: T3, Cholecystokinin receptor type A (Homo sapiens) (UniProt P32238); assay: Ratio of binding affinity of Cholecystokinin type A receptor […]
T3 sequence (whole entry): T1 sequence (P32238 whole entry)

| IC50 [1] [nM] | IC50 [2] [nM] | Ratio [3] | Structure (SMILES) |
| --- | --- | --- | --- |
| > 10000 |  |  | CCCC[C@@H](C(=O)N[C@@H](CC(=O)O)C(=O)N[C@@H](Cc1ccccc1)C(N)=O)N(C)C(=O)[C@H](Cc1c[nH]c2ccccc12)NC(=O)CN (H-GW[NMeNle]DF-NH2) |
| 364 | 4250 | 0.09 | CCCC[C@@H](C(=O)N[C@@H](CC(=O)OCc1ccccc1)[C@@H](Cc1ccccc1)C(N)=O)n1nnnc1[C@H](Cc1c[nH]c2ccccc12)NC(=O)CNC(=O)OC(C)(C)C (mixture of isomers) |
| > 10000 | 4530 | > 1.9 | CCCC[C@@H](C(=O)N[C@@H](CC(=O)O)[C@@H](Cc1ccccc1)C(N)=O)n1nnnc1[C@H](Cc1c[nH]c2ccccc12)NC(=O)CN |
| 2700 | 1.9 | 1420 | CCCC1C[C@@H](C(=O)N[C@@H](CC(=O)O)C(=O)N[C@@H](Cc2ccccc2)C(N)=O)N(C(=O)[C@H](Cc2c[nH]c3ccccc23)NC(=O)CN)C1 (stereo partly drawn) (H-GW[X1]DF-NH2) |
| 36.7 | 1880 | 0.02 | CCCC[C@@H](C(=O)N[C@@H](CC(=O)OCc1ccccc1)[C@@H](Cc1ccccc1)C(N)=O)n1nnnc1[C@H](Cc1c[nH]c2ccccc12)NC(=O)OC(C)(C)C (mixture of isomers) |
| 2180 | 169 | 12.9 | CCCC[C@H](NC(=O)[C@H](Cc1c[nH]c2ccccc12)NC(=O)CN)C(=O)N[C@@H](CC(=O)O)C(=O)N[C@@H](Cc1ccccc1)C(N)=O (H-GW[Nle]DF-NH2) |
| > 10000 | > 10000 |  | CCCCC(C(=O)OCc1ccccc1)n1nnnc1C(Cc1cn(C(=O)OCc2ccccc2)c2ccccc12)NC(=O)OCc1ccccc1 (stereo not drawn) |
